Test [1] has as its system B:13-21-specific IIT-3 and B:12-20-specific 9B9 T cell hybridoma. In words: T cell hybridoma responses to C3g7 APCs treated with or without chloroquine and pulsed with antigens. The test is classed as cell-based. Conditions: C3g7 APCs with or without 100 μM chloroquine for 2 h. Here is the method: (§1) In FIG. 5i, ConA-stimulated peritoneal macrophages were treated with 0.2 or 1 μM S961 for 1 h at 37° C. and were then cultured with the IIT-3 T cell hybridoma that recognizes the 13-21 peptide, in the presence of serially diluted insulin (19278; Sigma). In FIG. 6e, C3g7 cells were treated with chloroquine for 2 h at 37° C., washed, pulsed with the antigens, and cultured with T cell hybridomas. After incubation for 18 h, the culture supernatants were assayed for IL-2 production.

In a further test the test system is I-A^g7-expressing APCs. In words: Intravenous injection of Alexa Fluor 488-conjugated B:9-23, binding to splenic and thymic APCs by flow cytometry. The test is classed as in vivo, mice. The settings on record: 100 μg intravenously, one hour later. On the procedure:
FIG. 11a-FIG. 11c: Characterization of circulating B:9-23 and its localization into lymphoid organs. a, Unmodified synthetic B:9-23 (3 pmol) was spiked into 1 ml PBS, purified using C18 tips, lyophilized, and analyzed by nLC-MS/MS. […] An hour later, spleens and thymi were harvested, digested with liberase and DNase, and binding to splenic and thymic APCs was measured by flow cytometry. b, Representative FACS plots showing the binding of B:9-23 to splenic XCR1^+ and Sirpα^+ dendritic cell (DC) subsets and B cells (top). The bar graph summarizes cumulative results from individual mice (each point), pooled from three independent experiments. ns, not significant; **P<0.05; ***P<0.01; ****P<0.005, two-tailed unpaired Student's t-test. c, Representative FACS plots showing the binding of B:9-23 to thymic XCR1^+ and Sirpα^+ DC subsets and to CD45^− cells expressing MHCII. Data are mean±S.D from five individual mice per strain from two independent experiments.

The subject of a further test is 10E11 CD4 T cells. In words: Two-photon motility assay of anti-HEL 10E11 T cells in mice given HEL. The test is classed as in vivo, NOD mice. The settings on record: inguinal lymph nodes, day 3 post transfer, indicated amounts of HEL. Here is the method: (§2) CFSE- or CMTMR-labelled T cells were mixed 1:1 and were injected intravenously. For all the two-photon experiments, 2×10^6 T cells with either label were transferred. […] All the recipient mice were 3-4-week-old female mice unless otherwise mentioned. For experiments in FIG. 4f, FACS-sorted 8F10 T cells from pooled iLNs of 8-10 NOD or B16A mice were adoptively transferred intravenously into 4-6-week old NOD. Rag1÷ recipients (10^5 cells per mouse).
Lymph nodes were removed, attached to coverslips, placed in CO2-independent medium (Gibco) at room temperature and immediately imaged in a perfusion chamber to simulate blood flow (36.5° C. DMEM; 95% O2 and 5% CO2). Two-photon microscopy images were collected using a customized Leica SP8 Two-Photon Microscope (Leica Microsystems) equipped with a 25× and 0.95 numerical aperture water-immersion objective and a Mai Tai HP DeepSee Laser (Spectra-Physics) tuned to 840 nm. Fluorescence emission was guided directly to external hybrid photodetectors (Leica/Hamamatsu). […]
(§3) For cell tracking, two or three regions of one lymph node were randomly selected and cropped. […] We also calculated the meandering index and the motility coefficient for each track. […] The mean track velocities (μm/min) were calculated for individual tracks as previously described^11.

Test [2] has as its target T1, insulin receptor (Mus musculus, UniProt P15208). As to the kind of experiment: In vivo blockade of insulin receptor by S961 infusion via osmotic pump, blood glucose. Also noted: from tissue; host or cells: whole animal (NOD mice), in vivo. The settings on record: S961 20 nMol/week via osmotic pump, 3-week old NOD mice, versus PBS. On the procedure:
The S961 peptide ([…] (SEQ ID NO: 33)) was synthesized by LifeTein, with an intrachain disulphide bridge between Cys33 and Cys40 (underlined). S961 (20 nMol/week) or control PBS was filled into the Alzet osmotic pump (2001 model, Durect) and inserted subcutaneously in the back of anaesthetized mice through an incision between scapula. Blood glucose levels were monitored twice a day (Chemstrip 2GP; Roche); mice with a level above 250 mg/dl for two consecutive measurements were considered diabetic.

Test [3] has as its target T1, insulin receptor. As to the kind of experiment: Two-photon imaging motility assay of transferred T cells in lymph nodes of mice infused with S961 or PBS. The format is in vivo, NOD mice. Also noted: from tissue; host or cells: whole animal (NOD mice), in vivo. The settings on record: S961 infusion versus PBS, day 3 post transfer. Here is the method:
as §2
Lymph nodes were removed, attached to coverslips, placed in CO2-independent medium (Gibco) at room temperature and immediately imaged in a perfusion chamber to simulate blood flow (36.5° C. DMEM; 95% O2 and 5% CO2). […] Fluorescence emission was guided directly to external hybrid photodetectors (Leica/Hamamatsu). […]
as §3
The S961 peptide ([…] (SEQ ID NO: 33)) was synthesized by LifeTein, with an intrachain disulphide bridge between Cys33 and Cys40 (underlined). […] Blood glucose levels were monitored twice a day (Chemstrip 2GP; Roche); mice with a level above 250 mg/dl for two consecutive measurements were considered diabetic.

Test [4] concerns the target T1, insulin receptor. As to the kind of experiment: Antigen presentation assay: ConA-activated peritoneal macrophages treated with S961, insulin pulse, IIT-3 T cell hybridoma. The format is cell-based. On the set-up: endogenous in cells; host or cells: ConA-stimulated peritoneal macrophages. Conditions: 0.2 or 1 μM S961 for 1 h before insulin; IIT-3 hybridoma, IL-2 production. Here is the method:
as §1

Entries after “also recorded” stand apart in the source; their conditions may differ. Bridge positions count the residues as written; N and C are the ends. Ends that are not written are not given here.

T1 sequence (P15208 28-748 limits assumed): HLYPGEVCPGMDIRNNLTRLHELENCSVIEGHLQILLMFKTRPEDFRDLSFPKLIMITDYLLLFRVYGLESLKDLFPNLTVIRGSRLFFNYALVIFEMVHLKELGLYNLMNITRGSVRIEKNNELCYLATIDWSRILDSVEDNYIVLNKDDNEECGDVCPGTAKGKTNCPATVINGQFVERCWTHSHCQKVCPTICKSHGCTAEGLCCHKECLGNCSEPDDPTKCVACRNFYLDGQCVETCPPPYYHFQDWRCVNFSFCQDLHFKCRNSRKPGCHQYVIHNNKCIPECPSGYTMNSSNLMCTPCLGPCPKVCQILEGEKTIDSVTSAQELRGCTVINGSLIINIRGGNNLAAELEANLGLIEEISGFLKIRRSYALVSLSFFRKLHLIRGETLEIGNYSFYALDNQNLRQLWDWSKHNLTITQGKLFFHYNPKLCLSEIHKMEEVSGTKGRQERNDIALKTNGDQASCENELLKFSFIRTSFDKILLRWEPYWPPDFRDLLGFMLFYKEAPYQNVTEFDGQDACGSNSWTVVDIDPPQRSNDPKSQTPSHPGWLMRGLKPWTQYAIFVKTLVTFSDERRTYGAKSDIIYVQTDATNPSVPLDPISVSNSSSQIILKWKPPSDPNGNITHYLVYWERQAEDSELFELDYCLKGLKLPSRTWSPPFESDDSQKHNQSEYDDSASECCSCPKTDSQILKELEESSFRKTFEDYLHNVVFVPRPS
T1 sequence (P15208 753-1372 partner limits assumed): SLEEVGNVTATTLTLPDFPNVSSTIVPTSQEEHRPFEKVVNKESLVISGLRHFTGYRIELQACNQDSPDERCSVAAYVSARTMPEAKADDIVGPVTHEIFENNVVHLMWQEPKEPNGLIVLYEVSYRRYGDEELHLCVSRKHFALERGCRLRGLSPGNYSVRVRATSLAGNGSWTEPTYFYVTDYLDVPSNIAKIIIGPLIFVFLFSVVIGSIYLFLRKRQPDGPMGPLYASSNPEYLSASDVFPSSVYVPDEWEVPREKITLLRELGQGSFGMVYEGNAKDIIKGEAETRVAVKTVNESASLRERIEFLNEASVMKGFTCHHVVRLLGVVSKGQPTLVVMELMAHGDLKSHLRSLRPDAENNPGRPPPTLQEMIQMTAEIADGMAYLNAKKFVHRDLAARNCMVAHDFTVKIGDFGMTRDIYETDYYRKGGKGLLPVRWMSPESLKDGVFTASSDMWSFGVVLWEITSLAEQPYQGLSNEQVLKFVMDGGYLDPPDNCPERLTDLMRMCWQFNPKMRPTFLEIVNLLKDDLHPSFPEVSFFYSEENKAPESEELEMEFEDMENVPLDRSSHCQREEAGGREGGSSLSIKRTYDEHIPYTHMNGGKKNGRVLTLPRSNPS

Take “B:9-23: insulin B-chain peptide, segment 9-23 (SHLVEALYLVCGERG)”: the “need for internal processing for T cell reactivity” value in test [1] is listed as “not to B:9-23 or B:1-30 require internal processing”. Regarding “fluorochrome-labelled B:9-23: Alexa Fluor 488-conjugated B:9-23 peptide (SHLVEALYLVCGERG; also: Alexa Fluor 488-conjugated (position not given here))”, in the test with I-A^g7-expressing APCs, the “display by APCs in spleen” value is recorded as “rapidly displayed by I-A^g7-expressing APCs in spleen” and the “display by APCs in thymus” value is given as “not in thymus”.

For “HEL: hen egg lysozyme, control antigen recognized by 10E11 CD4 T cells”, in the test with 10E11 CD4 T cells, the “10E11 T cell velocities” value is reported as “progressive reduction of the 10E11 T cell velocities as the antigen amount increases”. Take “S961: insulin receptor antagonist peptide GSLDESFYDWFERQLGGGSGGSSLEEEWAQIQCEVWGRGCPSY (SEQ ID NO: 33), synthesized by LifeTein (disulfide 33-40; listed as Mus musculus)”: the blood glucose levels entry with insulin receptor [2] was “sustained increase in blood glucose levels”. Further, in the test with insulin receptor [3], the “motility arrest of 8F10 T cells” value was “remained at a comparable level; also recorded: comparable level of motility arrest” and the “reduction in mean velocity (motility) of transferred 4F7 T cells” value is “the magnitude of the reduction was significantly smaller than with PBS; also recorded: partial reduction of the 4F7 T cell motility”. Besides, the “ability of ConA-activated macrophages to present insulin” value with insulin receptor [4] was “impaired”. Turning to “insulin: insulin (19278; Sigma) used as antigen”, in test [1], the “need for internal processing for T cell reactivity” value is given as “require internal processing”.

The record behind these values is patent US12153056B2, “Compositions for and methods of diagnosing, prognosing, and treating diabetes” (Washington University, priority 2019, dated 2024).
